Laboratory results taken from ChEMBL document CHEMBL1147261, “Xanthanolides, germacranolides, and other constituents from Carpesium longifolium” (J Nat Prod, 2003).
≈ marks a conversion by molar mass, not a printed value.

Key:
[1] = Cytotoxicity against human HO8910 cells by MTT assay; format: functional, cell-based; settings: HO-8910
SMMC-7721 = test: Cytotoxicity against human SMMC7721 cells by MTT assay; format: functional, cell-based

Row | Structure (SMILES) | IC50 [1] | IC50 (SMMC-7721)
1 | C=C1C(=O)O[C@@H]2C3O[C@]3(C)CC/C=C(\C)CC[C@@H]12 (stereo partly drawn) | 1.37 µg/mL (≈ 5.52 µM) | 4.2 µg/mL (≈ 16.9 µM)
2 | COc1ccc(C2CC(=O)c3c(O)cc(OC)cc3O2)cc1 (stereo not drawn) | > 200 µg/mL | > 200 µg/mL
3 | C/C1=C\CC[C@@]2(C)O[C@@H]2[C@H]2OC(=O)[C@@H](C)[C@@H]2CC1 [11BETA,13-DIHYDRO-PARTHENOLIDE] | 158 µg/mL (≈ 631 µM) | > 200 µg/mL
4 | CC[C@]1(O)C[C@H]2CN(CCc3c([nH]c4ccccc34)[C@@](C(=O)OC)(c3cc4c(cc3OC)N(C=O)[C@H]3[C@@](O)(C(=O)OC)[C@H](OC(C)=O)[C@]5(CC)C=CCN6CC[C@]43[C@@H]65)C2)C1 [VINCRISTINE] | 1.37 µg/mL (≈ 1.66 µM) | 20.7 µg/mL (≈ 25.1 µM)
